We go through 22 molecules from ChEMBL document CHEMBL5154745, “Synthesis and antiviral activities of quinazolinamine-coumarin conjugates toward chikungunya and hepatitis C viruses” (Eur J Med Chem, 2022).

The structures appear in SMILES notation. pEC50: −log10 of the molar value.

The nature of data set [1]: Selectivity index, ratio of CC50 for cytotoxicity against human cells over EC50 for antiviral activity against CHIKV 899 infected in African green monkey Vero cells. The data set is classed as toxicity, cell-based. The note with it: read-out: Ratio CC50/EC50.
Data set [2] relates to Chikungunya virus. In words: Antiviral activity against CHIKV 899 infected in African green monkey Vero cells measured after 7 days. Type of data set: functional, organism-based. To be noted: Chikungunya virus, 899, Vero, 168 h.
The nature of data set [3]: Cytotoxicity against human HEL cells measured after 3 days by coulter counting method. Type of data set: toxicity, cell-based. The note with it: time 3 day.
Data set [4] in a line: Lipophilicity, log P of the compound. The data set is classed as physicochemical. The note with it: octanol/water.
For data set [5], the system named is Hepatitis C virus. In words: Antiviral activity against HCV infected in human Huh-5-2 cells assessed as reduction in viral replication measured by Luciferase reporter gene assay. The data set is classed as functional, organism-based, Hepacivirus hominis.
The subject of data set [6] is Chikungunya virus. Kind of data set: Antiviral activity against CHIKV assessed as inhibition of viral replication. The data set is classed as functional, organism-based.

With `COc1ccc(CNc2nc(S)nc3ccccc23)cc1`, the selectivity ratio in data set [1] is greater than 1. Besides, the pEC50 in data set [2] is 3.48. In data set [3], this molecule returned a half-maximal cytotoxic concentration (CC50) at 72 h greater than 336 µM.
On the same counts, the results for `Sc1nc(Nc2ccncc2)c2ccccc2n1` are 1.1, 3.66 and 242 µM.
Regarding `CC(C)(C)c1ccc2oc(=O)cc(CSc3nc(Nc4ccncc4)c4ccccc4n3)c2c1`, in data set [1], the selectivity ratio was 8.8. Besides, the pEC50 in data set [2] was 5.71. Further, in data set [4], the logP turned out to be 3.93. This molecule also returned a CC50 at 72 h in data set [3] of 17.3 µM.
For `Cc1cccc(Nc2nc(SCc3cc(=O)oc4ccc(C(C)(C)C)cc34)nc3ccccc23)c1C`, the selectivity ratio in data set [1] worked out at 10.8. Also, the results for the negative logarithm of the EC50 (pEC50) in data set [2] and in data set [5] were 4.86 and 4.78, respectively. In data set [4], this molecule displayed a logP of 5.04. The same molecule gave a half-maximal cytotoxic concentration (CC50) at 72 h in data set [3] of 150 µM.
In turn, `CC(C)(C)c1ccc2oc(=O)cc(CSc3nc(Nc4cccc5ccccc45)c4ccccc4n3)c2c1` gave a pEC50 in data set [2] of less than 3.71.
`COc1ccccc1Nc1nc(SCc2cc(=O)oc3ccc(C(C)(C)C)cc23)nc2ccccc12`: in data set [1], the selectivity ratio came to 16.8. The pEC50 in data set [2] was 5.51. In data set [4], this molecule displayed a logP of 4.76. In data set [3], this molecule returned a CC50 at 72 h of 51.9 µM.
As to `Cc1ccc(Nc2nc(S)nc3ccccc23)c(C)c1`, in data set [1], the selectivity ratio was determined as 2.4. In data set [2], the pEC50 is 4.23. The molecule further had a cytotoxic concentration (CC50) at 72 h in data set [3] of 142 µM.
Consider `Sc1nc(Nc2cccc3ccccc23)c2ccccc2n1`, for which the selectivity ratio in data set [1] was determined as 7.4. In addition, the pEC50 in data set [2] is 4.79. Also, the CC50 at 72 h in data set [3] amounted to 118 µM.
In data set [2], `Cc1cc(C)nc(Nc2nc(S)nc3ccccc23)c1` showed a pEC50 of less than 4.48.
Regarding `Cc1cccc(Nc2nc(S)nc3ccccc23)c1C`, the selectivity ratio in data set [1] came to 3.4. The pEC50 in data set [2] is 4.41. In data set [3], the CC50 at 72 h came out at 131 µM.
As to `CC(C)(C)c1ccc2oc(=O)cc(CSc3nc(Nc4ccccc4)c4ccccc4n3)c2c1`, the selectivity ratio in data set [1] came out at 37.2. The molecule further showed a pEC50 in data set [2] of 5.40. For the same molecule, in data set [4], the logP was 4.88. The same molecule gave a CC50 at 72 h in data set [3] of 147 µM.
Consider `Cc1ccc(Nc2nc(SCc3cc(=O)oc4ccc(C(C)(C)C)cc34)nc3ccccc23)c(C)c1`, for which the pEC50 in data set [2] was 5.51; in data set [5], 4.55. This molecule also showed a logP in data set [4] of 5.03. In addition, in data set [3], the CC50 at 72 h stood at 84.6 µM.
Turning to `COc1cc2oc(=O)cc(CSc3nc(Nc4ccccc4)c4ccccc4n3)c2cc1OC`, in data set [2], the pEC50 was less than 3.67.
As to `COc1ccccc1Nc1nc(S)nc2ccccc12`, the selectivity ratio in data set [1] worked out at 1.3. Further, in data set [2], the pEC50 was 3.65. The molecule further came in with a CC50 at 72 h in data set [3] of 290 µM.
As to `Cc1ccc2oc(=O)cc(CSc3nc(Nc4ccccc4)c4ccccc4n3)c2c1`, the pEC50 in data set [2] is less than 4.33.
In data set [2], `CC(C)(C)c1ccc2oc(=O)cc(CSc3nc(N(Cc4ccccc4)c4ccccc4)c4ccccc4n3)c2c1` had a pEC50 of less than 3.74.
The same measure, in the same setting: with `O=c1cc(CSc2nc(Nc3ccccc3)c3ccccc3n2)c2ccc(O)cc2o1` the figure was less than 3.63.
As for `Cc1cc(C)nc(Nc2nc(SCc3cc(=O)oc4ccc(C(C)(C)C)cc34)nc3ccccc23)c1`, the pEC50 in data set [2] is less than 3.82.
Regarding `COc1ccc(CNc2nc(SCc3cc(=O)oc4ccc(C(C)(C)C)cc34)nc3ccccc23)cc1`, the selectivity ratio in data set [1] is greater than 1.7. The negative-log EC50 (pEC50) in data set [2] was 4.07. In data set [3], this molecule registered a CC50 at 72 h greater than 147 µM.
Consider `Sc1nc(Nc2ccccc2)c2ccccc2n1`, for which the selectivity ratio in data set [1] was 2.5. The same molecule gave a pEC50 in data set [2] of 3.97. This molecule also came in with a CC50 at 72 h in data set [3] of 275 µM.
On to `O=c1ccc2ccccc2o1` [COUMARIN], for which the pEC50 in data set [5] is less than 3.82. Besides, the CC50 at 72 h in data set [3] was greater than 500 µM.
Consider `Cc1ccc(C(=O)Nc2ccc(S(=O)(=O)O)c3cc(S(=O)(=O)O)cc(S(=O)(=O)O)c23)cc1NC(=O)c1cccc(NC(=O)Nc2cccc(C(=O)Nc3cc(C(=O)Nc4ccc(S(=O)(=O)O)c5cc(S(=O)(=O)O)cc(S(=O)(=O)O)c45)ccc3C)c2)c1` [SURAMIN], for which the pEC50 in data set [6] was 4.10.
